Measurements from patent US8669265B2, “Hydrated form of erlotinib free base and a process for preparation of erlotinib hydrochloride polymorph form a substantially free of polymorph form B” (Hetero Research Foundation, priority 2007, dated 2014).

Legend:
[1] = Particle size distribution by laser diffraction (Sympatec Helos, 1 bar dispersive pressure); type: physicochemical; details: isolated crystalline product of the example; hydrochloride
From the text: The term “Particle Size Distribution (P.S.D.)” means the cumulative volume size distribution of equivalent spherical diameters as determined by laser diffraction at 1 bar dispersive pressure in a Sympatec Helos equipment. “Mean particle size distribution, i.e., d(0.5)” correspondingly, means the median of said particle size distribution.

[2] = Hygroscopicity and storage stability of the crystalline form (stated in words); type: physicochemical

SMILES	90 volume-% of the particles (D90) [1] [μm]	Mean particle size (D50) [1] [μm]	Storage stability [2]	Hygroscopicity [2]
C#Cc1cccc(Nc2ncnc3cc(OCCOC)c(OCCOC)cc23)c1.Cl [Example 6, N-(3-ethynylphenyl)-6,7-bis(2-methoxyethoxy)-4-quinazolinamine hydrochloride]	18.96	5.48	–	–
C#Cc1cccc(Nc2ncnc3cc(OCCOC)c(OCCOC)cc23)c1.Cl [N-(3-ethynylphenyl)-6,7-bis(2-methoxyethoxy)-4-quinazolinamine hydrochloride]	–	–	stable over the time	–
C#Cc1cccc(Nc2ncnc3cc(OCCOC)c(OCCOC)cc23)c1.Cl [Reference Example 1, N-(3-ethynylphenyl)-6,7-bis(2-methoxyethoxy)-4-quinazolinamine hydrochloride]	4.53	3.42	–	–
C#Cc1cccc(Nc2ncnc3cc(OCCOC)c(OCCOC)cc23)c1.Cl [Reference Example 2, N-(3-ethynylphenyl)-6,7-bis(2-methoxyethoxy)-4-quinazolinamine hydrochloride]	7.74	–	–	–
C#Cc1cccc(Nc2ncnc3cc(OCCOC)c(OCCOC)cc23)c1.Cl [Reference Example 5, N-(3-ethynylphenyl)-6,7-bis(2-methoxyethoxy)-4-quinazolinamine hydrochloride]	4.61	3.50	–	–
C#Cc1cccc(Nc2ncnc3cc(OCCOC)c(OCCOC)cc23)c1 [crystalline erlotinib hydrate, erlotinib hydrate]	–	–	storage stable over the time	non-hygroscopic
